The text below walks through data of ChEMBL document CHEMBL1125191, “Synthesis, stereochemistry, and biological activity of the 1-(1-phenyl-2-methylcyclohexyl)piperidines and the 1-(1-phenyl-4-methylcyclohexyl)piperidines. Absolute configuration of the potent trans-(-)-1-(1-phenyl-2-methylcyclohexyl)piperidine” (J Med Chem, 1991).

For assay [1], the system named is Mus musculus. The experiment in a line: ED50 value by rotarod test on mice at different dosage levels upon subcutaneous administration. Format: functional. The following applies: sc.
In assay [2] the target is T1, Glutamate receptor ionotropic, NMDA 1 (Rattus norvegicus, UniProt P35439). The experiment in a line: Binding affinity by displacement of [3H]TCP from PCP N-methyl-D-aspartate glutamate receptor of tissue homogenate preparation of rat brain without cerebellum. Format: tissue-based. In general terms: In a radioligand displacement assay an active substance lowers the binding of a labelled ligand.

Assay [3] deals with Mus musculus. In words: Effective dose after subcutaneous administration using rotarod test in mice. Format: functional. (In general: Falling from the rotarod earlier than controls is read as motor impairment.)
For assay [4], the target named is T1, Glutamate receptor ionotropic, NMDA 1. The experiment in a line: Binding affinity by displacement of [3H]TCP from PCP N-methyl-D-aspartate glutamate receptor of tissue homogenate preparation of rat brain without cerebellum (in vitro). Type of assay: tissue-based.

`N=C(c1ccccc1)C1(N2CCCCC2)CCCCC1`: in the assay on Mus musculus [1], the ED50 (as a rule, the dose that gives a 50% effect, or the effect in half of the subjects) was above 100 mg/kg. In assay [2], the Ki (commonly a dissociation constant, usually derived from enzyme kinetics or from competition with a known ligand) worked out at 31000 nM.
In the assay on Mus musculus [1], `CC1CCCCC1(C(=N)c1ccccc1)N1CCCCC1` (cis isomer) showed an ED50 above 100 mg/kg. Also, affinity in assay [2] was put at a Ki of 4700 nM.
In turn, `CC1CCCCC1(c1ccccc1)N1CCCCC1` (stereo in doubt; 3) returned a 50% effective dose (ED50) with Mus musculus [3] above 150 mg/kg. In assay [4], this compound had a Ki of 7400 nM.
The matching figures for `CC1CCC(c2ccccc2)(N2CCCCC2)CC1` (stereo in doubt; 17): above 150 mg/kg and 617 nM.
Compound `CC1CCC(c2ccccc2)(N2CCCCC2)CC1` (stereo in doubt; 18) yielded an ED50 in the assay on Mus musculus [3] of 5.5 mg/kg. In assay [4], this compound yielded a Ki of 166 nM.
Take `CC1CCCCC1(c1ccccc1)N1CCCCC1` (stereo in doubt; (+)-2): in the assay on Mus musculus [3], the ED50 amounted to 7.5 mg/kg. This compound also displayed a Ki in assay [4] of 100 nM.
In the assay on Mus musculus [3], `CC1CCCCC1(c1ccccc1)N1CCCCC1` (stereo in doubt; (+)-3) gave a median effective dose (ED50) above 100 mg/kg. In assay [4], this compound came in with an inhibitory constant (Ki) of 2940 nM.
The matching figures for `CC1CCCCC1(c1ccccc1)N1CCCCC1` (stereo in doubt; (-)-2): 1.9 mg/kg and 11 nM.
As for `CC1CCCCC1(c1ccccc1)N1CCCCC1` (stereo in doubt; (-)-3), the affinity in assay [4] corresponds to a Ki of 2180 nM.
As to `CC1CCCCC1(c1ccccc1)N1CCCCC1` (trans isomer), the ED50 in the assay with Mus musculus [3] came to 3.3 mg/kg. This compound displayed a Ki in assay [4] of 25 nM.
`CC1CCCCC1(C(=N)c1ccccc1)N1CCCCC1` (trans isomer) returned a Ki in assay [2] of 23000 nM.
Regarding `c1ccc(C2(N3CCCCC3)CCCCC2)cc1` [PHENCYCLIDINE], in the assay on Mus musculus [3] (Mus musculus, sc, read-out: ED50), the ED50 is 4 mg/kg. In assay [4], this compound showed an inhibitory constant (Ki) of 53 nM.
